According to publication PMC5596636 (ACS chemical neuroscience, 2016):

Tests used:
mMC3R = mMC3R (Mus musculus, UniProt P33033); experiment: cAMP-based β-galactosidase reporter agonist assay in HEK293 cells, mMC3R; details: for mMC3R fold difference: EC50 of substituted peptide divided by EC50 of NDP-MSH, potency loss
mMC4R = mMC4R (Mus musculus, UniProt P56450); experiment: cAMP-based β-galactosidase reporter agonist assay in HEK293 cells, mMC4R; details: EC50 of substituted peptide divided by EC50 of NDP-MSH; potency loss
mMC1R = mMC1R (Mus musculus, UniProt Q01727); experiment: cAMP-based β-galactosidase reporter agonist assay in HEK293 cells, mMC1R; details: EC50 of substituted peptide divided by EC50 of NDP-MSH; potency loss
mMC5R = mMC5R (Mus musculus, UniProt P41149); experiment: cAMP-based β-galactosidase reporter agonist assay in HEK293 cells, mMC5R; details: EC50 of substituted peptide divided by EC50 of NDP-MSH; potency loss
mMC5R, sequence (P41149 whole entry): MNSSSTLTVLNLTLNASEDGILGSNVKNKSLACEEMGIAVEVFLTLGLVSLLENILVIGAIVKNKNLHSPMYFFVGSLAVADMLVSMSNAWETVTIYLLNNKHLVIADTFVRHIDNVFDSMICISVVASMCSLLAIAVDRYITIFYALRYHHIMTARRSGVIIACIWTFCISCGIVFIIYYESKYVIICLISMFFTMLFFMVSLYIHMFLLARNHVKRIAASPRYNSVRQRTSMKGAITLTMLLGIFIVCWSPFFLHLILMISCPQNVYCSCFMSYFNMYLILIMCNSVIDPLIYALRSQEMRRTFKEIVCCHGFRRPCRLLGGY

mMC1R, sequence (Q01727 whole entry): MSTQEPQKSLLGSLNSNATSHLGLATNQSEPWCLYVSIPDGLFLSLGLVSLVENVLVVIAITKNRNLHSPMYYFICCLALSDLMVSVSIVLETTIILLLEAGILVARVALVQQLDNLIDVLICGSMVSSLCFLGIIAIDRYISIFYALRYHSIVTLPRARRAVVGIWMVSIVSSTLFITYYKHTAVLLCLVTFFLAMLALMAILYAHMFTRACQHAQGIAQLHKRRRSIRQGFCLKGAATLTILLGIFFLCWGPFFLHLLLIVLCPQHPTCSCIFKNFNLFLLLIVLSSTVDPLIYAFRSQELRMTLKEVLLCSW
mMC4R, sequence (P56450 whole entry): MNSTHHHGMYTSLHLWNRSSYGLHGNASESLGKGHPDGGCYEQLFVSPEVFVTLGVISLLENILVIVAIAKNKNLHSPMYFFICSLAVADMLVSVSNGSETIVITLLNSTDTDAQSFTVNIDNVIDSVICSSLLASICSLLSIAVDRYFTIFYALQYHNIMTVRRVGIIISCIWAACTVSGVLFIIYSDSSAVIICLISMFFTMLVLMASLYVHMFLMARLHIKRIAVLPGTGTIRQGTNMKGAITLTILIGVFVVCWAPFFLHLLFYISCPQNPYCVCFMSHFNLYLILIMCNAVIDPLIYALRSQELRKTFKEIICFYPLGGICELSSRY
mMC3R, sequence (P33033 whole entry): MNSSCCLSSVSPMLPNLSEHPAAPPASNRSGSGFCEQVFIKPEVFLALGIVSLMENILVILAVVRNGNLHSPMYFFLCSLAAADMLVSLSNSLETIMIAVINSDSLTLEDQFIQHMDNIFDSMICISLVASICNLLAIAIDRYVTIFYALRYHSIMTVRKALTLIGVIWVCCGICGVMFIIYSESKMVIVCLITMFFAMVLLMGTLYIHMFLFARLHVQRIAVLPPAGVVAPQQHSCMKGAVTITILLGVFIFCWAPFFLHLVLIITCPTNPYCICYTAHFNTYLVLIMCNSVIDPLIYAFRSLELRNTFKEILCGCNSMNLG

Row | EC50 (mMC3R) [nM] | mMC4R fold difference (mMC4R) | mMC3R fold difference (mMC3R) | mMC1R fold difference (mMC1R) | mMC5R fold difference (mMC5R) | SMILES
1 | 0.16 ± 0.017 | – | – | – | – | CCCC[C@H](NC(=O)[C@H](CO)NC(=O)[C@H](Cc1ccc(O)cc1)NC(=O)[C@H](C)NC(C)=O)C(=O)N[C@@H](CCC(=O)O)C(=O)N[C@@H](Cc1c[nH]cn1)C(=O)N[C@H](Cc1ccccc1)C(=O)N[C@@H](CCCNC(=N)N)C(=O)N[C@@H](Cc1c[nH]c2ccccc12)C(=O)NCC(=O)N[C@@H](CCCCN)C(=O)N1CCC[C@H]1C(=O)N[C@H](C(N)=O)C(C)C [[Ala^1]NDP-MSH, Ac-Ala-Tyr-Ser-Nle-Glu-His-DPhe-Arg-Trp-Gly-Lys-Pro-Val-NH2]
2 | 0.22 ± 0.06 | – | – | – | – | CCCC[C@H](NC(=O)[C@H](CO)NC(=O)[C@H](C)NC(=O)[C@H](CO)NC(C)=O)C(=O)N[C@@H](CCC(=O)O)C(=O)N[C@@H](Cc1c[nH]cn1)C(=O)N[C@H](Cc1ccccc1)C(=O)N[C@@H](CCCNC(=N)N)C(=O)N[C@@H](Cc1c[nH]c2ccccc12)C(=O)NCC(=O)N[C@@H](CCCCN)C(=O)N1CCC[C@H]1C(=O)N[C@H](C(N)=O)C(C)C [[Ala^2]NDP-MSH, Ac-Ser-Ala-Ser-Nle-Glu-His-DPhe-Arg-Trp-Gly-Lys-Pro-Val-NH2]
3 | 0.34 ± 0.08 | – | – | – | – | CCCC[C@H](NC(=O)[C@H](C)NC(=O)[C@H](Cc1ccc(O)cc1)NC(=O)[C@H](CO)NC(C)=O)C(=O)N[C@@H](CCC(=O)O)C(=O)N[C@@H](Cc1c[nH]cn1)C(=O)N[C@H](Cc1ccccc1)C(=O)N[C@@H](CCCNC(=N)N)C(=O)N[C@@H](Cc1c[nH]c2ccccc12)C(=O)NCC(=O)N[C@@H](CCCCN)C(=O)N1CCC[C@H]1C(=O)N[C@H](C(N)=O)C(C)C [[Ala^3]NDP-MSH, Ac-Ser-Tyr-Ala-Nle-Glu-His-DPhe-Arg-Trp-Gly-Lys-Pro-Val-NH2]
4 | 0.36 ± 0.04 | no differences | no differences | 5 fold | no differences | CC(=O)N[C@@H](CO)C(=O)N[C@@H](Cc1ccc(O)cc1)C(=O)N[C@@H](CO)C(=O)N[C@@H](C)C(=O)N[C@@H](CCC(=O)O)C(=O)N[C@@H](Cc1c[nH]cn1)C(=O)N[C@H](Cc1ccccc1)C(=O)N[C@@H](CCCNC(=N)N)C(=O)N[C@@H](Cc1c[nH]c2ccccc12)C(=O)NCC(=O)N[C@@H](CCCCN)C(=O)N1CCC[C@H]1C(=O)N[C@H](C(N)=O)C(C)C [[Ala^4]NDP-MSH, Ac-Ser-Tyr-Ser-Ala-Glu-His-DPhe-Arg-Trp-Gly-Lys-Pro-Val-NH2]
5 | 260 ± 64 | 2370 fold | 1080 fold | 2350 fold | 180 fold | CCCC[C@H](NC(=O)[C@H](CO)NC(=O)[C@H](Cc1ccc(O)cc1)NC(=O)[C@H](CO)NC(C)=O)C(=O)N[C@@H](CCC(=O)O)C(=O)N[C@@H](Cc1c[nH]cn1)C(=O)N[C@@H](C)C(=O)N[C@@H](CCCNC(=N)N)C(=O)N[C@@H](Cc1c[nH]c2ccccc12)C(=O)NCC(=O)N[C@@H](CCCCN)C(=O)N1CCC[C@H]1C(=O)N[C@H](C(N)=O)C(C)C [[Ala^7]NDP-MSH]
6 | 0.13 ± 0.06 | unaltered | unaltered | unaltered | unaltered | CCCC[C@H](NC(=O)[C@H](CO)NC(=O)[C@H](Cc1ccc(O)cc1)NC(=O)[C@H](CO)NC(C)=O)C(=O)N[C@@H](CCC(=O)O)C(=O)N[C@@H](Cc1c[nH]cn1)C(=O)N[C@H](Cc1ccccc1)C(=O)N[C@@H](CCCNC(=N)N)C(=O)N[C@@H](Cc1c[nH]c2ccccc12)C(=O)N[C@@H](C)C(=O)N[C@@H](CCCCN)C(=O)N1CCC[C@H]1C(=O)N[C@H](C(N)=O)C(C)C [[Ala^10]NDP-MSH, Ac-Ser-Tyr-Ser-Nle-Glu-His-DPhe-Arg-Trp-Ala-Lys-Pro-Val-NH2]
7 | 33 ± 11 | – | – | – | – | CSCC[C@H](NC(=O)[C@H](CO)NC(=O)[C@H](Cc1ccc(O)cc1)NC(=O)[C@H](CO)NC(C)=O)C(=O)N[C@@H](CCC(=O)O)C(=O)N[C@@H](Cc1c[nH]cn1)C(=O)N[C@@H](Cc1ccccc1)C(=O)N[C@@H](CCCNC(=N)N)C(=O)N[C@@H](Cc1c[nH]c2ccccc12)C(=O)N[C@@H](C)C(=O)N[C@@H](CCCCN)C(=O)N1CCC[C@H]1C(=O)N[C@H](C(N)=O)C(C)C [[Ala^10]α-MSH]
8 | 0.17 ± 0.02 | unaltered | unaltered | unaltered | unaltered | CCCC[C@H](NC(=O)[C@H](CO)NC(=O)[C@H](Cc1ccc(O)cc1)NC(=O)[C@H](CO)NC(C)=O)C(=O)N[C@@H](CCC(=O)O)C(=O)N[C@@H](Cc1c[nH]cn1)C(=O)N[C@H](Cc1ccccc1)C(=O)N[C@@H](CCCNC(=N)N)C(=O)N[C@@H](Cc1c[nH]c2ccccc12)C(=O)NCC(=O)N[C@@H](C)C(=O)N1CCC[C@H]1C(=O)N[C@H](C(N)=O)C(C)C [[Ala^11]NDP-MSH, Ac-Ser-Tyr-Ser-Nle-Glu-His-DPhe-Arg-Trp-Gly-Ala-Pro-Val-NH2]
9 | 49 ± 33 | – | – | – | – | CSCC[C@H](NC(=O)[C@H](CO)NC(=O)[C@H](Cc1ccc(O)cc1)NC(=O)[C@H](CO)NC(C)=O)C(=O)N[C@@H](CCC(=O)O)C(=O)N[C@@H](Cc1c[nH]cn1)C(=O)N[C@@H](Cc1ccccc1)C(=O)N[C@@H](CCCNC(=N)N)C(=O)N[C@@H](Cc1c[nH]c2ccccc12)C(=O)NCC(=O)N[C@@H](C)C(=O)N1CCC[C@H]1C(=O)N[C@H](C(N)=O)C(C)C [[Ala^11]α-MSH]
10 | 0.36 ± 0.06 | 5 fold | – | 4 fold | – | CCCC[C@H](NC(=O)[C@H](CO)NC(=O)[C@H](Cc1ccc(O)cc1)NC(=O)[C@H](CO)NC(C)=O)C(=O)N[C@@H](CCC(=O)O)C(=O)N[C@@H](Cc1c[nH]cn1)C(=O)N[C@H](Cc1ccccc1)C(=O)N[C@@H](CCCNC(=N)N)C(=O)N[C@@H](Cc1c[nH]c2ccccc12)C(=O)NCC(=O)N[C@@H](CCCCN)C(=O)N[C@@H](C)C(=O)N[C@H](C(N)=O)C(C)C [[Ala^12]NDP-MSH, Ac-Ser-Tyr-Ser-Nle-Glu-His-DPhe-Arg-Trp-Gly-Lys-Ala-Val-NH2]
11 | 0.3 ± 0.06 | unaltered | unaltered | unaltered | unaltered | CCCC[C@H](NC(=O)[C@H](CO)NC(=O)[C@H](Cc1ccc(O)cc1)NC(=O)[C@H](CO)NC(C)=O)C(=O)N[C@@H](CCC(=O)O)C(=O)N[C@@H](Cc1c[nH]cn1)C(=O)N[C@H](Cc1ccccc1)C(=O)N[C@@H](CCCNC(=N)N)C(=O)N[C@@H](Cc1c[nH]c2ccccc12)C(=O)NCC(=O)N[C@@H](CCCCN)C(=O)N1CCC[C@H]1C(=O)N[C@@H](C)C(N)=O [[Ala^13]NDP-MSH, Ac-Ser-Tyr-Ser-Nle-Glu-His-DPhe-Arg-Trp-Gly-Lys-Pro-Ala-NH2]
12 | 42 ± 26 | – | – | – | – | CSCC[C@H](NC(=O)[C@H](CO)NC(=O)[C@H](Cc1ccc(O)cc1)NC(=O)[C@H](CO)NC(C)=O)C(=O)N[C@@H](CCC(=O)O)C(=O)N[C@@H](Cc1c[nH]cn1)C(=O)N[C@@H](Cc1ccccc1)C(=O)N[C@@H](CCCNC(=N)N)C(=O)N[C@@H](Cc1c[nH]c2ccccc12)C(=O)NCC(=O)N[C@@H](CCCCN)C(=O)N1CCC[C@H]1C(=O)N[C@@H](C)C(N)=O [[Ala^13]α-MSH]
